Results reported in publication PMC12646587, “Advanced cardiotoxicity profiling using field potential imaging with UHD-CMOS-MEA in human iPSC-derived cardiomyocytes” (Toxicological Sciences, 2025).
Like-named read-outs stand apart in the source and are kept apart here. Values belong to the molecule of their own block, whether it stands above or below them.

What was measured:
[1] = system: human iPSC-derived cardiomyocytes; test: Field potential imaging (FPI) with UHD-CMOS-MEA, acute drug treatment; assay type: cell-based; details: for BR (beat rate): arrows = direction, – = none; for FPI (concentration at which changes were detected): changed parameters in brackets in each cell; for significant changes in any of the measured parameters (17 beat parameters): 10, 100 μM
Method: Cryopreserved iCell Cardiomyocytes (FUJIFILM Cellular Dynamics, Inc.) were handled according to the supplier’s instructions. Cells were thawed in a 37 °C water bath for approximately 3 min and resuspended in iCell Thawing Medium to prepare a cell suspension at a final concentration of 1 × 10^7 cells/ml. A total of 10 µl of the cell suspension (100,000 cells per chip) was seeded directly onto the fibronectin-coated electrode area of each chip. Chips were incubated at 37 °C for 1 h to allow cell attachment, after which 1 ml of maintenance medium was gently added. […] Thereafter, medium exchanges were performed twice weekly by replacing half the medium volume.
Compounds were dissolved in culture medium containing 0.1% DMSO and administered cumulatively at increasing concentrations. Drug solutions were applied directly to the culture wells, and measurements were initiated 30 min after administration. […] All recordings were performed under spontaneous beating conditions, with no external pacing applied.
Recordings were performed at a sampling rate of 2 kHz, with a 2-min recording duration per condition. Data acquisition was controlled via proprietary software (Sony Semiconductor Solutions), and all raw signals were stored for offline analysis. All experiments were conducted in a humidified environment at 37 °C with 5% CO2, ensuring physiological conditions during both drug exposure and recording.
Spikes from hiPSC-derived cardiomyocytes were initially detected at each electrode using a voltage threshold of ±100 µV via BinViewer software (SCREEN Holdings Co., Ltd, Japan). The resulting spike data were then processed using a custom MATLAB (MathWorks, Natick, MA) script to perform beat detection. Firing count histograms were generated using a bin size of 0.5 ms, and peak detection within these histograms identified the timing and propagation duration of beats across the electrode array. For each electrode, the maximum spike amplitude and its corresponding peak timing were calculated to generate heat maps of field potential amplitude and activation timing. […]

[2] = cited from earlier work
[3] = system: human iPSC-derived cardiomyocytes; test: PCA of beat parameters: cardiotoxicity risk and mechanism classification; assay type: cell-based; details: for position in PCA space: across all tested concentrations
Method: Each parameter set was evaluated for its ability to separate cardiotoxic and non-cardiotoxic compounds while maintaining minimal variance among negative controls. […] To assess cardiotoxicity, PCA scores of test compounds were plotted in the PC space, and their positions were compared with the SD-defined zones of the negative control group. Risk levels were classified as follows: Low risk (within 1 SD), medium risk (between 1 and 2 SD), and high risk (beyond 2 SD). Dose-dependent cardiotoxicity potential was estimated based on displacement from the negative control cluster.
To establish a risk classification framework, the standard deviation (SD) range of negative control compounds in PCA space was used to define 3 zones: Within the SD range (low risk), between 1 and 2 SD (medium risk), and beyond 2 SD (high risk) (Fig. 6B). Risk levels derived from PCA distribution were compared with IC50 and Cmax values reported for each compound and associated ion channels (Table 5).

cardiomyocytes [4] = details: CTD90 ↑; ref Lu et al. 2019; cited from earlier work
cardiomyocytes [5] = details: cited from earlier work
CaV = details: cited from earlier work
NaV = details: cited from earlier work
hiPSC-CMs = test: Conventional MEA recording (16-electrode Axion Maestro), acute exposure; assay type: cell-based, human
Method: To enable comparison with the UHD-CMOS-MEA recordings, conventional extracellular field potential recordings were performed using 16-electrode MEA plates on a commercially available MEA system (Axion Maestro, Axion Biosystems), in accordance with the general principles of the CiPA initiative. hiPSC-CMs were cultured and maintained on the MEA plates under spontaneous beating conditions at 37 °C. Recordings were conducted after 10 to 14 DIV, and data acquisition and beat detection were performed using the built-in algorithms of the AxIS software (Axion Biosystems), without the use of external pacing. […] Each compound was applied under acute exposure conditions, and field potential recordings were obtained for 30 min following drug administration.
To evaluate the measurement capabilities of a conventional MEA system, the same set of 7 compounds was tested using the 16-electrode Axion Maestro platform.

cardiomyocytes [6] = details: BR20 (20% reduction in beat rate), cited from earlier work
hERG = details: read-out: IC50 hERG; ref Clements et al. 2015; cited from earlier work
[7] = acute, statistically significant change vs before

- Amp. (amplitude) [1, 7]: ↓
- Area (propagation area) [1, 7]: ↓
- IBI (interbeat interval) [1, 7]: prolonged and ↑
- BR (beat rate) [1, 7]: ↓
- FPI (concentration at which changes were detected) [1]: 1 (BR) μM
SMILES: CC(C)N(CCC(C(N)=O)(c1ccccc1)c1ccccn1)C(C)C (stereo not drawn) [Disopyramide]
- Veloc. (conduction velocity) [1, 7]: ↓
- Cmax Free ([2]; ref Liu et al. 2021): 0.7 ([Liu et al. 2021]) μM
- FPI PCA (concentration at which changes were detected) [3]: 1 µM
- HCA assay (cardiomyocytes [4]): 10 ([Lu et al. 2019]) (CTD90 ↑) µM
- MEA assay (cardiomyocytes [5]; FPDc10 (10% prolongation of FPDc), ref Ando et al. 2017): 0.74 ([Ando et al. 2017]) (FPDc10) µM
- IC50 (CaV; ref Kramer et al. 2013): 1040 µM
- IC50 (NaV; ref Kramer et al. 2013): 168 µM

- beating frequency ([1]; 10 µM, before 64.5 bpm): 31.5 bpm
- number of active electrodes ([1]; 10 µM, before 115,437.9 ± 582.1): 93,595.6 ± 11,323.1
- Amp. (amplitude) [1, 7]: decreased and ↓
- Amp. CV [1, 7]: increased and ↑
- Area (propagation area) [1, 7]: decreased and ↓
- IBI (interbeat interval) [1, 7]: increase and ↑
- BR (beat rate) [1, 7]: decreased and ↓
- FPI (concentration at which changes were detected) [1]: 10 (BR, IBI, Ampl. Area, Veloc.) μM
- spontaneous beating (hiPSC-CMs; 10 μM): ceased entirely
- IBI (hiPSC-CMs; acute): reached statistical significance
- beat frequency (hiPSC-CMs; acute): reached statistical significance
- field potential (spike) amplitude (hiPSC-CMs; acute): increase
- propagation area (hiPSC-CMs; acute): not captured
SMILES: Cc1cccc(C)c1OCC(C)N (stereo not drawn) [Mexiletine]
- beat-wise variability in conduction speed ([1]; 10 µM, post-treatment): increased variability
- average conduction velocity ([1]; 10 µM, before 0.147 ± 0.004, n = 6 wells): 0.109 ± 0.009 m/s
- proportion of the area with conduction velocity exceeding 0.3 m/s ([1]; 10 µM, before 4.9%): 0.6%
- Veloc. (conduction velocity) [1, 7]: decreased and ↓
- conduction velocity (hiPSC-CMs; acute): not captured
- magnitude of change in beat frequency and IBI (hiPSC-CMs; acute): 2.2%
- Cmax Free ([2]; ref Crumb et al. 2016): 2.5 ([Crumb et al. 2016]) μM
- FPI PCA (concentration at which changes were detected) [3]: 1 µM
- MEA assay (cardiomyocytes [5]; Spike amp., ref Clements and Thomas 2014): 3.0 ([Clements and Thomas 2014]) (Spike amp.) µM
- Impedance assay (cardiomyocytes [6]; ref Guo et al. 2013): 3.0 ([Guo et al. 2013]) (BR20) µM
- IC50 (hERG): 62.2 µM
- IC50 (CaV; ref Clements et al. 2015): 125 µM
- IC50 (NaV; ref Clements et al. 2015): 38 µM

- Amp. CV [1, 7]: decreased and ↓
- IBI (interbeat interval) [1, 7]: ↓
- IBI CV [1, 7]: decreased and ↓
- Veloc. CV [1, 7]: decreased and ↓
- Veloc. STV [1, 7]: ↓
- IBI (hiPSC-CMs; acute): statistically significant changes
SMILES: CC(C)COCC(CN(Cc1ccccc1)c1ccccc1)N1CCCC1 (stereo not drawn) [Bepridil]
- IBI variability, amplitude variability, conduction velocity variability and STV of conduction (hiPSC-CMs; acute): not detected
- magnitude of change in beat frequency and IBI (hiPSC-CMs; acute): less than 5%
- Cmax Free ([2]; ref Crumb et al. 2016): 0.032 ([Crumb et al. 2016]) μM
- HCA assay (cardiomyocytes [4]): 1.0 ([Lu et al. 2019]) (CTD90 ↑) µM
- MEA assay (cardiomyocytes [5]; FPD, ref Kaneko et al. 2014): 10 ([Kaneko et al. 2014]) (FPD) µM
- Impedance assay (cardiomyocytes [6]; ref Guo et al. 2013): 0.03 ([Guo et al. 2013]) (BR20) µM
- IC50 (CaV; ref Clements et al. 2015): 1 µM
- IC50 (NaV; ref Clements et al. 2015): 2.3 µM

SMILES: COc1ccc(CCN(C)CCCC(C#N)(c2ccc(OC)c(OC)c2)C(C)C)cc1OC (stereo not drawn) [Verapamil]
- Amp. CV [1, 7]: ↓
- Amp. STV [1, 7]: ↓
- Dist Origin [1, 7]: reduced and ↓
- Dist Origin STV [1, 7]: ↓
- IBI (interbeat interval) [1, 7]: reduced and ↓
- No. of Origin [1, 7]: ↓
- BR (beat rate) [1, 7]: increased and ↑
- FPI (concentration at which changes were detected) [1]: 0.003 (IBI, Amp. STV, Dist Origins, Dist Origins STV) μM
- IBI (hiPSC-CMs; acute): shortened
- beat frequency (hiPSC-CMs; acute): increased
- field potential (spike) amplitude (hiPSC-CMs; acute): decreasing trend

- average number of excitation origins per beat ([1]; 10 nM, n = 6 wells): 1.51 ± 0.02
- total number of active electrodes ([1]; 30 nM, Before: 149,149.4 ± 3,090.5): 149,185.2 ± 2,882.6
- beating frequency ([1]; 30 nM, before 35.5 bpm): 57.0 bpm
- average number of excitation origins per beat ([1]; 30 nM, n = 6 wells): 1.61 ± 0.02
- Area STV [1, 7]: decreased and ↓
- IBI (interbeat interval) [1, 7]: ↓
- BR (beat rate) [1, 7]: increased and ↑
- FPI (concentration at which changes were detected) [1]: 0.01 (BR, IBI) μM
SMILES: CC(C)NCC(O)c1ccc(O)c(O)c1 (stereo not drawn) [Isoproterenol]
- FPI PCA (concentration at which changes were detected) [3]: 0.01 µM
- Impedance assay (cardiomyocytes [6]; ref Doherty et al. 2015): 0.01 ([Doherty et al. 2015]) (BR20) µM

- significant changes in any of the measured parameters (17 beat parameters) ([1]; acute): did not induce significant changes
SMILES: CC1(C)S[C@@H]2[C@H](NC(=O)[C@H](N)c3ccc(O)cc3)C(=O)N2[C@H]1C(=O)O [Amoxicillin]
- position in PCA space [3]: remained near the origin

- IBI (interbeat interval) [1, 7]: reduced and ↓
- BR (beat rate) [1, 7]: increased and ↑
- IBI (hiPSC-CMs; acute): shortened
- beat frequency (hiPSC-CMs; acute): increased
- field potential (spike) amplitude (hiPSC-CMs; acute): significant reduction
SMILES: COc1ccc([C@@H]2Sc3ccccc3N(CCN(C)C)C(=O)[C@@H]2OC(C)=O)cc1 [Diltiazem]

SMILES: C=C[C@H]1C[N@@]2CC[C@H]1C[C@@H]2[C@@H](O)c1ccnc2ccc(OC)cc12 [Quinidine]
- Amp. (amplitude) [1, 7]: decreased and ↓
- Area (propagation area) [1, 7]: decreased and ↓
- Area CV [1, 7]: increasing and ↑
- IBI (interbeat interval) [1, 7]: increasing and ↑
- BR (beat rate) [1, 7]: decreased and ↓
- IBI (hiPSC-CMs; acute): prolonged
- beat frequency (hiPSC-CMs; acute): reduced
- conduction velocity (hiPSC-CMs; acute): decreased
- field potential (spike) amplitude (hiPSC-CMs; acute): decreased
- propagation area (hiPSC-CMs; acute): decreased
- Cmax Free ([2]; ref Blinova et al. 2018): 3 ([Blinova et al. 2018]) μM
- position on the PCA plot relative to mechanism-of-action groups ([3]; 10 μM): plotted near compounds acting on hERG channels
- MEA assay (cardiomyocytes [5]; FPD, ref Harris et al. 2013): 0.3 ([Harris et al. 2013]) (FPD) µM
- Impedance assay (cardiomyocytes [6]; ref Guo et al. 2013): 10 ([Guo et al. 2013]) (BR20) µM

- significant changes in any of the measured parameters (17 beat parameters) ([1]; acute): did not induce significant changes
SMILES: CC(=O)Oc1ccccc1C(=O)O [Aspirin]
- position in PCA space [3]: remained near the origin
